Laboratory results published in ChEMBL document CHEMBL1139572 (Bioorg Med Chem Lett, 2005).

How the values were obtained:
Progesterone receptor [1] = molecular target: T1, Progesterone receptor (Homo sapiens, UniProt P06401); experiment: Displacement of fluorescent ligand from binding domain of progesterone receptor
T1 sequence (P06401 whole entry): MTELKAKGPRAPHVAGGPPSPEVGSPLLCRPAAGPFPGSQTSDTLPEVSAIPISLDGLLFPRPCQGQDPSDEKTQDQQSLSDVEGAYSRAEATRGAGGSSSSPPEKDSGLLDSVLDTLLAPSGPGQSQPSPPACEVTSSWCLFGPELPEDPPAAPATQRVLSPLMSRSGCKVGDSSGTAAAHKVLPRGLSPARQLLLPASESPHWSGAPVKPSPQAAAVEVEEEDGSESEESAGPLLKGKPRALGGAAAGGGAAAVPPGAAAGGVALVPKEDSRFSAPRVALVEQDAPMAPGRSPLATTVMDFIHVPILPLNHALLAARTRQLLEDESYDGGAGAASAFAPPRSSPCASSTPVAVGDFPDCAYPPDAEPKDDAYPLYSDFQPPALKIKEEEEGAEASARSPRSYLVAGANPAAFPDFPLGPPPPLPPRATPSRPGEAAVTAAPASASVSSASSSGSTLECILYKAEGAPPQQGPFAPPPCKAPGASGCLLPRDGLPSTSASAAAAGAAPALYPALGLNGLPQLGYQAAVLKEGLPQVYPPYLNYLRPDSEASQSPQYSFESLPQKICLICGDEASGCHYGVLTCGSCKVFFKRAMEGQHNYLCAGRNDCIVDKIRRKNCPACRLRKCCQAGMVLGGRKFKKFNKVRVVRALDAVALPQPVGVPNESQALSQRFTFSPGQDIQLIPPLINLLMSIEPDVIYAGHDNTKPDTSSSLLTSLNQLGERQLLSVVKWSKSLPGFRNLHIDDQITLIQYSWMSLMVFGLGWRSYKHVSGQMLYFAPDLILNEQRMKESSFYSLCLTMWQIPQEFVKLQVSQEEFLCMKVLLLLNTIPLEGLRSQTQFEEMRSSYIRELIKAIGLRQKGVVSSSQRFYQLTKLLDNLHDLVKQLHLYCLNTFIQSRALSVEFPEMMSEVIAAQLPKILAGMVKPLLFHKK

Progesterone receptor [2] = molecular target: T1, Progesterone receptor; experiment: Inhibition of 4 nM progesterone-stimulated transactivation of MMTV-Luc reporter in CV-1 cells expressing PR-B; assay type: functional, cell-based

Row | Ki (Progesterone receptor [1]) | Log IC50 (Progesterone receptor [2]) | SMILES
1 | 100 nM | -5.8 | CN(C)c1ccc([C@@H]2CN(S(=O)(=O)c3ccc(Cl)cc3)N=C2c2ccc(Cl)c(Cl)c2)cc1
2 | 39.8 nM | -6.1 | CN(C)c1ccc(C2CN(S(=O)(=O)c3ccc(Cl)cc3)N=C2c2ccc(Cl)c(Cl)c2)cc1 (stereo unspecified)
3 | 20 nM | -7.6 | C[C@H]1CN(S(=O)(=O)c2ccc(Cl)cc2)N=C1c1ccc(Cl)c(Cl)c1
4 | 2000 nM | -5.3 | C[C@@H]1CN(S(=O)(=O)c2ccc(Cl)cc2)N=C1c1ccc(Cl)c(Cl)c1
5 | 100 nM | – | O=S(=O)(c1ccc(Cl)cc1)N1CC(c2ccccc2)C(c2ccc(Cl)c(Cl)c2)=N1 (stereo unspecified)
6 | 7940 nM | -6.4 | O=S(=O)(c1ccc(Cl)cc1)N1N=C(c2ccc(Cl)c(Cl)c2)CC1c1ccccc1 (stereo unspecified)
7 | 39.8 nM | – | CC1CN(S(=O)(=O)c2ccc(Cl)cc2)N=C1c1ccc(Cl)c(Cl)c1 (stereo unspecified)
8 | > 10000 nM | > -5.5 | CN(C)c1ccc([C@H]2CN(S(=O)(=O)c3ccc(Cl)cc3)N=C2c2ccc(Cl)c(Cl)c2)cc1
9 | 39.8 nM | -6.7 | CC1CC(c2ccc(Cl)c(Cl)c2)=NN1S(=O)(=O)c1ccc(Cl)cc1 (stereo unspecified)
